The values that follow come from ChEMBL document CHEMBL3301451, “MMV Malaria Box gametocyte functional viability assay screening”.

Holding throughout (assay type): functional
Holding throughout (parameters): concentration or dose not given beside the values

The test system of assay [1] is Plasmodium falciparum. Nature of the assay: MMV: P. falciparum NF54 functionally mature Stage V gametocytes were incubated for 24 hr in the presence of the test compounds. Gamete formation was then triggered by addition of 2uM xantheurenic acid and temperature decrease to ~20C. Female gamete formation was recorded 24 hr later by automated microscopy detection of surface labelling of female gametes with a Cy3-conjugated antibody reactive to Pfs25. All compounds were tested in 4 independent experiments and data presented here is the mean. The note with it: NF54, 24 h.

In assay [2] the test system is Plasmodium falciparum. Nature of the assay: MMV: P. falciparum NF54 functionally mature Stage V gametocytes were incubated for 24 hr in the presence of the test compounds. Gamete formation was then triggered by addition of 2uM xantheurenic acid and temperature decrease to ~20C. Male gamete exflagellation was recorded and analysed by automated microscopy after 20 min. All compounds were tested in 4 independent experiments and data presented here is the mean.

The test system of assay [3] is Plasmodium berghei. Nature of the assay: MMV: P. berghei-infected blood was withdrawn from mice by cardiac pucture before being immediately added to ookinete culture medium containing test compounds. 26 hr later, GFP-positive ookinetes were identified and counted by automated microscopy. All compounds were tested in 4 independent experiments and data presented here is the mean.

For `COc1cccc(Cn2c(Oc3ccccc3)nc3c2c(=O)n(C)c(=O)n3C)c1`, the values for the inhibition in assay [1], in assay [2] and in assay [3] were 1.84%, 35.5% and -11.71%, respectively.

Turning to `N=c1n(CCN2CCCCC2)c2ccccc2n1CC(=O)c1ccc(Cl)c(Cl)c1`, the inhibition (usually the relative decrease from the control value, in per cent) was -16.3% in assay [1], -14.4% in assay [2] and -13.93% in assay [3].

`CCOc1c(Cl)cc(CNCC(O)c2ccccc2)cc1OC` (configuration not stated): the inhibition in assay [1] was -14.1%; in assay [2], -11.9%; in assay [3], -11.86%.

Turning to `CC1(c2ccccc2)Nc2ccccc2-c2nc3ccccc3n21` (configuration not stated), the inhibition is 0.151% in assay [1], 11.7% in assay [2] and -11.28% in assay [3].

For `COc1ccc(CCN2C(=O)c3[nH]nc(-c4cc(Cl)c(C)cc4O)c3C2c2ccccc2F)cc1` (configuration not stated), the inhibition in assay [1] was -34.2%; in assay [2], -17.3%; in assay [3], -13.65%.

On to `COc1ccc(-n2ccnc2SCC(=O)Nc2cc(C)ccc2C)c(OC)c1`, for which the inhibition is -9.31% in assay [1], 12% in assay [2] and -11.96% in assay [3].

For `Cl.N=c1n(CCN2CCCCC2)c2ccccc2n1CC(O)c1cccc(Br)c1` (configuration not stated), the inhibition in assay [1] was -26.6%; in assay [2], -19.3%; in assay [3], -14.54%.

Take `CCN1CCN(Cc2ccc(NC(=O)c3cc4ccc5cccnc5c4[nH]3)cc2)CC1`: the values for the inhibition in assay [1], in assay [2] and in assay [3] were -5.39%, 15.9% and -14.48%, respectively.

As to `COc1cccc(Nc2nc(NCCO)c3ccccc3n2)c1.Cl`, the inhibition in assay [1] is -29.6%; in assay [2], -137%; in assay [3], -13.29%.

Take `Cc1ccc(-c2cc(C(=O)Nc3ccc(S(=O)(=O)N4CCCCC4)cc3)[nH]n2)c(O)c1`: the inhibition in assay [1] was -11.2%; in assay [2], 7.64%; in assay [3] it was -10.93%.

For `O=C(O)C1Cc2c([nH]c3ccccc23)C(c2ccc(Cl)cc2Cl)N1` (configuration not stated), the inhibition in assay [1] is -17.3%; in assay [2] it was 21%; in assay [3], -13.83%.

With `CCOc1ccc(N2C(N)=NC(N)=NC2(C)C)cc1.Cl`, the inhibition in assay [1] is -42%; in assay [2], 66.8%; in assay [3], -12.23%.

`COc1cccc(Nc2nc(N)c3ccccc3n2)c1.Cl`: the inhibition in assay [1] is -36.4%; in assay [2], -35.2%; in assay [3] it was -11.42%.

As for `CCCCCCc1cc2cc(-c3csc(C=Cc4ccccc4)n3)c(=O)oc2cc1O`, the values for the inhibition in assay [1], in assay [2] and in assay [3] were -35.1%, -65.7% and -12.07%, respectively.

Regarding `CN(C)CCCNCc1ccc(-c2ccc(F)c(Cl)c2)o1.Cl`, the inhibition in assay [1] is 38.4%; in assay [2], 51.9%; in assay [3], -12.37%.

As to `CCOc1ccc(CN2CCN(CC(O)COc3ccc(OCC(O)CN4CCN(Cc5ccc(OCC)cc5)CC4)cc3)CC2)cc1` (configuration not stated), the inhibition is -37.4% in assay [1], -9.77% in assay [2] and -13.58% in assay [3].

For `CCN(CC)CCn1c(=N)n(CC(O)c2ccc(Cl)c(Cl)c2)c2ccccc21.Cl` (configuration not stated), the inhibition in assay [1] was 7.92%; in assay [2], -66.5%; in assay [3] it was -13%.

In the case of `O=C(NC1CCN(Cc2ccccc2)CC1)c1cc(C(=O)NC2CCN(Cc3ccccc3)CC2)cc(C(=O)NC2CCN(Cc3ccccc3)CC2)c1`, the inhibition in assay [1] is -6.87%; in assay [2], 57%; in assay [3], -11.8%.

As for `Nc1ccc(-c2nc3cc(Cc4ccc5[nH]c(-c6ccc(N)cc6)nc5c4)ccc3[nH]2)cc1`, the inhibition in assay [1] is 2.76%; in assay [2], 26.6%; in assay [3], -14.26%.

For the compound `COc1ccc(CNC2CCN(c3ccc(NC(=O)c4cccc(Cl)c4)cc3)CC2)cc1OC`, the inhibition in assay [1] was -36.5%; in assay [2], 15%; in assay [3], -11.96%.

As to `CCOc1ccc2nc(C)cc(Nc3ccc(N(C)C)cc3)c2c1.Cl`, the inhibition in assay [1] was -42.3%; in assay [2] it was -23.6%; in assay [3], -13.58%.

For the compound `CCOc1ccc(C2N(C)c3ccccc3N2C)cc1`, the inhibition was 9.89% in assay [1], -6.18% in assay [2] and -11.42% in assay [3].

Regarding `Cc1ccc(OCCCCCCNCCO)c(C)c1`, the inhibition in assay [1] is 0.189%; in assay [2], -19.1%; in assay [3], -11.75%.

For `COCCn1c(C)nc2ccccc2c1=O`, the figures for the inhibition in assay [1], in assay [2] and in assay [3] were -15.4%, 22.3% and -11.98%, respectively.

As for `O=C(NC1CCN(Cc2ccccc2)CC1)c1cc(-c2cccnc2)nc2ccc(Cl)cc12`, the inhibition was -32.7% in assay [1], -6.01% in assay [2] and -13.2% in assay [3].

On to `COc1ccc(C(=O)C(CCC(CNC(C)(C)C)C(=O)c2ccc(OC)cc2)CNC(C)(C)C)cc1` (configuration not stated), for which the inhibition was 4.72% in assay [1], 16.3% in assay [2] and -12.62% in assay [3].

For the compound `COc1ccc(C2C(C(=O)Nc3cccc(OC)c3)c3ccccc3C(=O)N2C2CCCCC2)cc1` (configuration not stated), the inhibition in assay [1] was -25.1%; in assay [2] it was 46.2%; in assay [3] it was -12.06%.

As for `Cc1cc(C)c2c(c1)OCN(Cc1ccccc1Cl)C2`, the results for the inhibition in assay [1], in assay [2] and in assay [3] were -10%, 25.8% and -11.06%, respectively.

`CCOc1ccccc1NC(=O)CN1CCN(C(=O)c2ccco2)CC1`: the values for the inhibition in assay [1], in assay [2] and in assay [3] were 12.9%, 19.3% and -13.05%, respectively.

For the compound `CCN(CC)CCCNc1ccnc2cc3ccccc3cc12`, the inhibition is 20.2% in assay [1], 30.2% in assay [2] and -14.18% in assay [3].

Regarding `COc1cc(-c2nc(-c3ccccc3)c(-c3ccccc3)[nH]2)cc(OC)c1O`, the inhibition in assay [1] is -41.1%; in assay [2], 5%; in assay [3] it was -13.75%.

In the case of `COc1cc(SC)ccc1C(=O)N1CCCC(C)C1` (configuration not stated), the values for the inhibition in assay [1], in assay [2] and in assay [3] were 6.66%, 23.2% and -13.09%, respectively.

Regarding `CCc1ccc(CNCC(O)c2ccccc2)cc1.Cl` (configuration not stated), the inhibition in assay [1] is -20.9%; in assay [2], -40.9%; in assay [3], -12.46%.

Consider `COc1ccccc1CNC(=O)C1c2ccccc2C(=O)N(CC(C)C)C1c1cccs1` (configuration not stated), for which the results for the inhibition in assay [1], in assay [2] and in assay [3] were -15.9%, 8.38% and -12.03%, respectively.

For the compound `CCOc1cc2c(cc1OCC)C(c1cc(Cl)c(O)c(OCC)c1)NCC2` (configuration not stated), the inhibition in assay [1] is 14.7%; in assay [2], 22.4%; in assay [3], -11.39%.

In the case of `O=C(O)C(=O)O.Oc1ccc(Br)cc1CN1CCN(Cc2cccc(F)c2)CC1`, the values for the inhibition in assay [1], in assay [2] and in assay [3] were -17.6%, 27.2% and -11.78%, respectively.

For the compound `COc1ccc(-c2cc(=O)oc3c4c(ccc23)OCN(Cc2ccc(F)cc2)C4)cc1`, the values for the inhibition in assay [1], in assay [2] and in assay [3] were -14.6%, -29.3% and -11.79%, respectively.

`COc1cc(CNCCc2ccc(Cl)cc2)cc(OC)c1O`: the inhibition in assay [1] was -40.5%; in assay [2], -14.1%; in assay [3], -10.96%.

`CCCCC(O)(c1ccc(Cl)cc1)C(CN1CCOCC1)c1ccc(Cl)cc1.Cl` (configuration not stated): the inhibition in assay [1] was -22.4%; in assay [2], -10.1%; in assay [3] it was -12.32%.

Take `CN(C)c1ccc(N2C(N)=NC(N)=NC2(C)C)cc1`: the results for the inhibition in assay [1], in assay [2] and in assay [3] were -61.8%, 71.6% and -13.4%, respectively.

As to `CCOc1ccc(Nc2ccnc3cc(Cl)ccc23)cc1`, the inhibition is -52.9% in assay [1], -4.26% in assay [2] and -13.78% in assay [3].

Consider `COc1ccc(Nc2nc(NCc3ccccc3)c3ccccc3n2)cc1`, for which the inhibition in assay [1] is -14.7%; in assay [2], -30.2%; in assay [3], -12.84%.

For the compound `COc1cc2c(cc1OC)C1=NNC(=O)C1=NC(C)(C)C2`, the inhibition is -26.2% in assay [1], 52.9% in assay [2] and -11.77% in assay [3].

For `CCOc1c(Cl)cc(CNC(C)C(O)c2ccccc2)cc1OC` (configuration not stated), the inhibition in assay [1] is -16%; in assay [2] it was 11.3%; in assay [3], -12.71%.

Take `Cc1ccc(N2C3c4ccccc4N(S(=O)(=O)c4ccc(C)cc4)C2c2ccccc2N3S(=O)(=O)c2ccc(C)cc2)cc1`: the inhibition in assay [1] is -6.27%; in assay [2] it was 24.2%; in assay [3] it was -13.78%.

`Br.Cc1ccc(C)c(-c2csc(Nc3ccc(C)c(C)c3)n2)c1`: the inhibition was -46.3% in assay [1], 20.6% in assay [2] and -11.38% in assay [3].

Turning to `O=C(NCC1Cc2cccc(-c3ccncc3)c2O1)c1csc2c1CCCC2` (configuration not stated), the inhibition in assay [1] is -19.3%; in assay [2], 20.6%; in assay [3] it was -13.38%.

As for `Br.CCN(CC)S(=O)(=O)c1ccc(-c2csc(Nc3ccc(C)c(C)c3)n2)cc1`, the figures for the inhibition in assay [1], in assay [2] and in assay [3] were -51.5%, 21.9% and -11.5%, respectively.

On to `CCOC(=O)C1=CN(C)C=C(C(=O)OCC)C1c1cc(Br)c(OCC)c(OC)c1`, for which the inhibition is -20.1% in assay [1], 22.3% in assay [2] and -13.86% in assay [3].
